Laboratory results as given in patent US20230190761A1, “METHYLENE BLUE STABILIZED MRNA COMPOSITIONS” (ModernaTX, Inc., priority 2020, published 2023).
Where “and” joins values, the source holds several entries; their conditions need not be identical. Identical values can stand only once. Entries after “also recorded” stand apart in the source; their conditions may differ.

Key:
mRNA-LNP [1] = assay: DOE study of solution composition with and without methylene blue, main peak purity by RP-HPLC; format: physicochemical; settings: 2 mM methylene blue, 40° C. ~1 week
Source text: To broadly evaluate the effect of methylene blue under a large number of systematically varied solution conditions, a design of experiment (DOE) approach was utilized.

mRNA [2] = assay: ITC of dye-mRNA interaction; format: binding
[3] = system: mRNA within LNP compositions; assay: mRNA integrity by fragmentation analysis after 10 days at 5, 25 or 40° C. with methylene blue; format: physicochemical; settings: for mRNA stability by fragmentation analysis: 0.1-6 mM methylene blue
Source text: mRNA purity can be determined by reverse phase high-performance liquid chromatography (RP-HPLC) size based separation. This method can be used to assess mRNA integrity by a length-based gradient RP separation and UV detection of RNA at 260 nm. As used herein “main peak” or “main peak purity” refers to the RP-HPLC signal detected from mRNA that corresponds to the full size mRNA molecule loaded within a given LNP formulation. mRNA purity can also be assessed by fragmentation analysis. Fragmentation analysis (FA) is a method by which nucleic acid (e.g., mRNA) fragments can be analyzed by capillary electrophoresis. Fragmentation analysis involves sizing and quantifying nucleic acids (e.g., mRNA), for example by using an intercalating dye coupled with an LED light source. Such analysis may be completed, for example, with a Fragment Analyzer from Advanced Analytical Technologies, Inc.
(§1) In view of the surprising and somewhat counter-intuitive finding that methylene blue enhanced stability of mRNA-LNP formulations, additional experimentation was conducted. The stability of mRNA-LNPs in the presence of increasing levels of methylene blue was investigated upon incubation at 5° C., 25° C. or 40° C. for 10 days. […] In addition to chemical stability, a careful examination of the possible impact of methylene blue on the physical state of the LNP was performed using dynamic light scattering (DLS). This technique is exquisitely sensitive to tiny changes in hydrodynamic nanoparticle size, especially with respect to the formation of larger aggregates known to be a common physical degradation mode of many LNPs.

mRNA [4] = assay: DLS of methylene blue-mRNA interaction; format: physicochemical; settings: methylene blue concentrations in the 10 μM range; data not shown
Source text: The images in FIG. 22 show the effect of thionine on mRNA-LNPs. […] The significant protection against fragmentation and adduct formation conferred by the compounds disclosed herein may be based on this effect on nucleic acid conformational state.

[5] = system: lipid nanoparticles (LNP); assay: Permeation of phenothiazinium dyes into LNP and binding to encapsulated mRNA; format: physicochemical; settings: optical spectroscopic studies, Cryo-EM, DLS, isothermal titration calorimetry
Source text: This example describes phenothiazinium dyes which interact with mRNA and their impact on LNP formulations. […] These interpretations were made based on extensive optical spectroscopic studies, Cryo-EM, dynamic light scattering (DLS) and isothermal titration calorimetry studies.

mRNA-LNP [6] = assay: DLS characterization of mRNA-LNP physical stability in presence of methylene blue; format: physicochemical
Source text: Particle size (e.g., particle diameter) can be determined by Dynamic Light Scattering (DLS). DLS measures a hydrodynamic diameter. Smaller particles diffuse more quickly, leading to faster fluctuations in the scattering intensity and shorter decay times for the autocorrelation function. Larger particles diffuse more slowly, leading to slower fluctuations in the scattering intensity and longer decay times in the autocorrelation function.
as §1
After the 3 week incubation, samples were analyzed by dynamic light scattering (DLS) to characterize the hydrodynamic diameters of LNPs.
Samples were measured by dynamic light scattering (DLS) in PBS after being filtered through 0.8 μm filters to remove large particulates.

mRNA in LNP formulations = assay: mRNA-LNP purity by RP-HPLC and fragment analysis, 40° C. 12 days, light vs dark; format: physicochemical
Protocol: As detailed in this example, samples are labeled as follows: A=0 mM methylene blue; B=0.5 mM methylene blue; C=1 mM methylene blue; D=1.5 mM methylene blue; and E=2.0 mM methylene blue.
After incubating samples at 40° C. for 12 days, either protected from light or unprotected, fragmentation analysis was conducted to evaluate the presence of lipid-RNA adducts.

[7] = LC/MS analysis of PEG-lipid stability in presence of methylene blue; format: physicochemical
Protocol: This example describes the effects of methylene blue on lipid components of LNP formulations. PEG-lipid is known to be susceptible to oxidative degradation. Given the degradation mechanism attributed to methylene blue, an accelerated study was performed to evaluate whether the presence of methylene blue adversely affects PEG-lipid stability. Lyso-PEG-DMG is considered a primary bellwether of PEG-lipid degradation. As such, its concentration in samples was measured using liquid chromatography/mass spectrometry (LC/MS) after storage of LNPs at room temperature (FIG. 7A) or 5° C. (FIG. 7B) in the presence of a range of methylene blue concentrations.

[8] = system: mRNA within LNP formulations; assay: Screen of molecular dyes on mRNA stability within LNP formulations (RP-HPLC); format: physicochemical
Protocol: This example discusses the effects of various dye molecules on mRNA stability within LNP formulations. To evaluate the potential stabilization effects of dyes, LNP compositions were prepared containing 2 mM of one of 25 dyes. After incubation for 4 days at 40° C., main peak mRNA purity was measured by RP-HPLC. Variance within this study was estimated from three independent sample replicates with no dye (Sample IDs D0a, D0b and D0c as shown in Table 4) or with 2 mM methylene blue (Sample IDs D1a, D1b and D1c as shown in Table 4). […] The main peak purity measured in each mRNA-LNP formulation, as well as its difference relative to the no dye controls is shown in Table 4. Positive differences relative to no dye represent improvements in mRNA stability, and negative differences represent worsened mRNA stability.

lyophilized mRNA-LNP = assay: Stability of lyophilized mRNA-LNP with methylene blue (RP-HPLC); format: physicochemical; settings: lyophilized mRNA-LNP powder with 1 mM methylene blue, 1 week at 40° C.
Protocol: To evaluate whether methylene blue could have a stabilization effect on lyophilized powder formulations of mRNA-LNP, studies were performed to compare the effect of 1 mM methylene blue on loss of purity of a lyophilized mRNA-LNP. In this experiment methylene blue was added to LNP immediately prior to lyophilization. The resulting powders (shown in FIG. 15) were stored at −80° C., 5° C. or 40° C. with or without methylene blue.

## CN(C)c1ccc2nc3ccc(N(C)C)cc3[s+]c2c1 [methylene blue]
mRNA-LNP [1]; 14 buffer/pH/NaCl conditions
  average purity of the 14 samples: 60±6%
mRNA-LNP [1]; Tris or phosphate buffer pH 7.0-8.5, 0 or 150 mM NaCl, RP-HPLC
  main peak mRNA purity (range over samples 15-28): 50-70%
mRNA [2]
  dissociation constant for the dye-mRNA interaction (ITC): μm dissociation constant
[3]; 5° C.
  mRNA stability by fragmentation analysis: slight trend in the opposite direction
[3]; 40° C., fragmentation analysis
  methylene blue concentration range at which stabilizing effect reached a maximum: 1.5 to 3.0 mM
[3]; room temperature
  mRNA stability by fragmentation analysis: protective effect
mRNA [4]
  mRNA hydrodynamic radii (DLS): measurable decrease in mRNA hydrodynamic radii
[5]
  permeation of lipid nanoparticles and binding to encapsulated mRNA: does not permeate LNPs to the same extent as certain other phenothiazinium dyes
mRNA-LNP [6]; 0.5-2.0 mM methylene blue, 3 weeks refrigerated storage
  LNP size distributions and average hydrodynamic diameters by DLS: does not have an impact on the overall lipid nanoparticle structure
mRNA-LNP [6]; up to 2.0 mM methylene blue, 5 months refrigerated storage
  hydrodynamic size or size distribution (polydispersity index) of LNP by DLS: no significant impact
mRNA-LNP [6]; up to 6 mM methylene blue, 10 days at 5° C., 25° C. and 40° C.
  hydrodynamic size / physical stability of the LNP by DLS: no significant effect on hydrodynamic size of the LNP; also recorded: no impact on the physical stability of the mRNA-LNP
mRNA in LNP formulations; 12 days, protected from light, 0.5-2.0 mM methylene blue, vs −80 C controls
  mRNA stability by RP-HPLC and fragmentation analysis: enhanced the stability of mRNA in LNP formulations
mRNA in LNP formulations; 12 days, unprotected from light, samples B-E (0.5-2.0 mM methylene blue)
  mRNA degradation by RP-HPLC and fragmentation analysis: more mRNA degradation than samples stored protected from light or those without methylene blue
mRNA in LNP formulations; protected from light
  adduct formation: did not have a detrimental effect on adduct formation
[7]; 0, 0.1, 0.5 and 1 mM methylene blue, 1 week at room temperature or 5° C.
  total quantity of PEG-lipid (LC/MS): no effect on the total quantity of PEG-lipid present
[7]; 0 to 1.0 mM methylene blue, LNPs at room temperature or 5° C., 1 week
  Lyso-PEG-DMG signal (LC/MS): no difference in Lyso-PEG-DMG signal was detected
[8]; 2 mM dye in mRNA-LNP, RP-HPLC, no value (—) = physically unstable, no reliable chromatographic result, interpreted as destabilizing
  Main Peak Purity after 4 days at 40° C. (%): 89.62% and 90.27% and 85.96%
[8]; 2 mM dye, three independent sample replicates
  Mean (Main Peak Purity after 4 days at 40° C.): 89 ± 2%
[8]; main peak purity, 2 mM dye, 4 days at 40° C., ±4% interpreted as significant
  Difference relative to No Dye: 14%
Lyophilized mRNA-LNP
  main peak purity: 30% and 33%
